Laboratory results reported in PubChem BioAssay (NCI).
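Here, GI50 denotes the concentration required for 50% inhibition of growth. TGI is the concentration that stops growth completely.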

Tests used:
Experiment in all cases: DTP human tumour cell line panel, 384-well format
MDA-MB-435 melanoma = system: MDA-MB-435 melanoma
KM12 colon = system: KM12 colon
MALME-3M melanoma = system: MALME-3M melanoma
M14 melanoma = system: M14 melanoma
RPMI-8226 leukemia = system: RPMI-8226 leukemia
CAKI-1 renal = system: CAKI-1 renal
HL-60(TB) leukemia = system: HL-60(TB) leukemia
NCI-H460 NSCLC = system: NCI-H460 NSCLC
SF-539 CNS = system: SF-539 CNS
A498 renal = system: A498 renal
MOLT-4 leukemia = system: MOLT-4 leukemia
OVCAR-3 ovarian = system: OVCAR-3 ovarian
T-47D breast = system: T-47D breast

Q: How did the GI50 (MDA-MB-435 melanoma) turn out when C[C@@H]1Cc2c(ccc3[nH]ncc23)[C@@H](c2ccc(NC3CN(CCCF)C3)cn2)N1CC(F)(F)F was run?
A: 16.8 µM

Q: What about the TGI (MDA-MB-435 melanoma) of the same molecule?
A: 30.6 µM

Q: What about the GI50 (KM12 colon) of the same molecule?
A: 15.8 µM

Q: And the TGI (KM12 colon)?
A: 29.8 µM

Q: What about the GI50 (MALME-3M melanoma) of the same molecule?
A: 13.8 µM

Q: And the TGI (MALME-3M melanoma)?
A: 26.7 µM

Q: What about the GI50 (M14 melanoma) of the same molecule?
A: 16.3 µM

Q: What about the TGI (M14 melanoma) of the same molecule?
A: 29.9 µM

Q: What about the GI50 (RPMI-8226 leukemia) of the same molecule?
A: 6.32 µM

Q: And the TGI (RPMI-8226 leukemia)?
A: 19.3 µM

Q: And the GI50 (CAKI-1 renal)?
A: 13.7 µM

Q: What about the TGI (CAKI-1 renal) of the same molecule?
A: 26.7 µM

Q: And the GI50 (HL-60(TB) leukemia)?
A: 13.5 µM

Q: And the TGI (HL-60(TB) leukemia)?
A: 26.4 µM

Q: And the GI50 (NCI-H460 NSCLC)?
A: 15.6 µM

Q: And the TGI (NCI-H460 NSCLC)?
A: 29.3 µM

Q: And the GI50 (SF-539 CNS)?
A: 16.7 µM

Q: And the TGI (SF-539 CNS)?
A: 30.4 µM

Q: And the GI50 (A498 renal)?
A: 12.5 µM

Q: And the TGI (A498 renal)?
A: 25 µM

Q: What about the GI50 (MOLT-4 leukemia) of the same molecule?
A: 3.09 µM

Q: What about the TGI (MOLT-4 leukemia) of the same molecule?
A: 12.8 µM

Q: And the GI50 (OVCAR-3 ovarian)?
A: 14.5 µM

Q: What about the TGI (OVCAR-3 ovarian) of the same molecule?
A: 27.7 µM

Q: What about the GI50 (T-47D breast) of the same molecule?
A: 10.9 µM

Q: What about the TGI (T-47D breast) of the same molecule?
A: 22.9 µM
